From US6992215B2, “Thiol-based NAALADase inhibitors” (Guildford Pharmaceuticals Inc., priority 2001, dated 2006)

How the values were obtained:
TGF-β1 [1] = assay: Effect of NAALADase inhibition on TGF-β1 in in vitro ischemia model; format: cell-based; settings: ischemic cell cultures, FIG. 1
Experimental: (§1) A NAALADase inhibitor, Compound C, was added to ischemia cell cultures to determine its effect on TGF-β levels during stroke.

[2] = test system: chronic constrictive injury-induced rats; assay: Neuropathic pain in CCI model (sciatic nerve ligation, thermal hyperalgesia); format: in vivo; settings: 50 mg/kg i.p. daily starting 10 days post surgery
Experimental: Sciatic nerve ligation, consisting of 4 ligatures tied loosely around the sciatic nerve at 1 mm intervals proximal to the nerve trifurcation, was performed on rats. […] The rats were habituated to a Hargreaves apparatus. An infrared heat source was directed onto the dorsal surface of each rat's hindpaws and the time taken for the rat to withdraw its paws was noted. The difference in scores between the latency of the response for the paw on the operated side versus the paw on the unoperated control side was determined.
The rats were treated with either Compound 49 (10, 1 or 0.1 mg/kg) or a vehicle for 15 days after sciatic nerve ligation. Thermal pain responses were measured at days 0, 1, 5, 8, 11 and 15. The differences in scores for the rats treated with a vehicle and the rats treated with Compound 49 are graphically presented in FIGS. 13-15.
The rats were treated with either Compound 5 (50, 30, 10, 3, 1 or 0.3 mg/kg) or a vehicle for 12 (or 15) days after sciatic nerve ligation. Thermal pain responses were measured at days 0, 1, 5, 8 and 12 (and 15). The differences in scores for the rats treated with a vehicle and the rats treated with Compound 5 are graphically presented in FIGS. 17-22.
The rats received either Compound C (50 mg/kg i.p. daily) or a vehicle starting 10 days post surgery. […] Normal (unoperated) rats had approximately equal latencies for both paws. This effect was significant starting at 11 days of drug treatment and persisted through to the end of the study (for 21 days of daily dosing).

TGF-β1 [3] = assay: TGF-β1 levels in MCAO rats assessed by microdialysis; format: in vivo; settings: during both occlusion and reperfusion, FIG. 6
ischemic cell cultures = assay: Neuroprotective effect in in vitro ischemia model with growth factor neutralizing antibodies; format: cell-based
Experimental: TGF-β neutralizing antibodies were then added to the ischemic cell cultures.

TGF-β2 = assay: Effect of NAALADase inhibition on TGF-β2 in in vitro ischemia model; format: cell-based; settings: ischemic cell cultures, FIG. 2
Experimental: as §1

[4] = test system: rats subjected to middle cerebral artery occlusion; assay: Neuroprotective effect in MCAO rats with TGF-β neutralizing antibodies; format: in vivo; settings: FIG. 5
Text: The effect of TGF-β neutralizing antibodies on the neuroprotective effect of Compound C was also studied in rats following MCAO.
One of ordinary skill in the art can appreciate that the regulation of TGF-β's by NAALADase inhibitors may have implications not only in stroke, but also in other diseases, disorders and conditions including, without limitation, neurological diseases, psychiatric diseases, demyelinating diseases, prostate cancer, inflammation, diabetes and angiogenesis.

Question: Which results are given for `O=C(O)CCC(CP(=O)(O)O)C(=O)O` (centres unmarked) [Compound C, 2-(phosphonomethyl)pentanedioic acid]?
Answer: TGF-β1 concentrations (TGF-β1 [1]): increased concentrations; time of drug treatment from which the effect was significant [2]: 11 days; difference scores between the two paws ([2]; FIG. 8): dramatically normalized; TGF-β1 levels (TGF-β1 [3]): significant rise; neuroprotective effect in the presence of TGF-β neutralizing antibodies (ischemic cell cultures; FIG. 3): blocked; neuroprotective effect in the presence of FGF antibody (ischemic cell cultures; FIG. 4): did not block; TGF-β2 concentrations (TGF-β2): increased concentrations; neuroprotective effect in vivo in the presence of TGF-β neutralizing antibodies [4]: significantly attenuated
